This passage reports Observed efficacy and inhibition of growth results from patent US20260174083A1, “FUNGICIDAL MIXTURE COMPRISING SUBSTITUTED PYRIDINES” (BASF SE, priority 2022, published 2026).

Assay type in all cases: cell-based
The test system of one assay is Septoria tritici. Briefly: Activity against leaf blotch on wheat caused by Septoria tritici (microtiterplate test).
The test system of another assay is Botrytis cinerea. The experiment in a line: Activity against the grey mold Botrytis cinerea in the microtiterplate test.
The next assay deals with Pyricularia oryzae. Briefly: microbe, parasite or virus in culture. The note with it: for Observed efficacy: single active, MTP, 405 nm, 7 days after inoculation.
[1] abbreviates: Botrytis cinerea, 168 h, single active, 4 ppm, MTP, 405 nm, 7 days after inoculation, read-out: Observed efficacy.
[2] abbreviates: Pyricularia oryzae, 168 h, read-out: Observed efficacy.
The mark [3] stands for this setting: Zymoseptoria tritici, 168 h, single active, 0.25 ppm, MTP, 405 nm, 7 days after inoculation, read-out: Observed efficacy.
[4] abbreviates: Zymoseptoria tritici, 168 h, single active, MTP, 405 nm, 7 days after inoculation, read-out: Observed efficacy.
The mark [5] stands for this setting: Botrytis cinerea, 168 h, single active, MTP, 405 nm, 7 days after inoculation, read-out: Observed efficacy.
Where [6] appears, read: Botrytis cinerea, 168 h, single active, 1 ppm, MTP, 405 nm, 7 days after inoculation, read-out: Observed efficacy.
[7] abbreviates: Zymoseptoria tritici, 168 h, single active, 0.016 ppm, MTP, 405 nm, 7 days after inoculation, read-out: Observed efficacy.
[8] abbreviates: Zymoseptoria tritici, 168 h, single active, 0.063 ppm, MTP, 405 nm, 7 days after inoculation, read-out: Observed efficacy.
[9] abbreviates: single active, 0.063 ppm, MTP, 405 nm, 7 days after inoculation.

SMILES strings stand for the structures. Where two headings read alike, the source gives them in different places.

With `CO/C=C(/C(=O)OC)c1ccccc1Oc1cc(Oc2ccccc2C#N)ncn1` [Azoxystrobin, azoxystrobin, reference compound], the Observed efficacy in the assay with Septoria tritici (single active, 0.016 ppm, MTP, 405 nm, 7 days after inoculation) turned out to be 0%.
`OC(Cc1ccccc1Cl)(Cn1nc[nH]c1=S)C1(Cl)CC1` (stereo not drawn) [Prothioconazol, prothioconazole, reference compound]: the inhibition of growth at 4 ppm in the assay with Botrytis cinerea (setting [1]) and with Pyricularia oryzae (setting [2]) was 35% each time. Also, the inhibition of growth at 0.25 ppm in the assay with Septoria tritici (setting [3]) is 42%.
On to `Cc1cccc2sc3nncn3c12` [Tricyclazol, tricyclazole, reference compound], for which the inhibition of growth at 4 ppm with Botrytis cinerea (setting [1]) and with Pyricularia oryzae (setting [2]) was 14% each time. Moreover, the inhibition of growth at 1 ppm in the assay on Septoria tritici (setting [4]) is 14%.
`O=C(Nc1ccccc1-c1ccc(Cl)cc1)c1cccnc1Cl` [Boscalid, boscalid, reference compound]: the inhibition of growth at 1 ppm in the assay on Septoria tritici (setting [4]) came out at 54%.
For the compound `Cc1cc(C2=N[C@@H](C)C(C)(C)Oc3c(F)cccc32)cnc1C(F)F` [Compound 1-2], the inhibition of growth at 0.063 ppm in the assay with Botrytis cinerea (Botrytis cinerea, 168 h, single active, 0.063 ppm, MTP, 405 nm, 7 days after inoculation, read-out: Observed efficacy) was 11%; in the assay on Pyricularia oryzae (setting [2]), 11%; with Septoria tritici (setting [8]), 0%. Moreover, the figures for the inhibition of growth at 0.25 ppm in the assay with Botrytis cinerea (setting [5]), with Pyricularia oryzae (setting [2]) and in the assay with Septoria tritici (setting [3]) were 11%, 11% and 13%, respectively. Besides, the inhibition of growth at 1 ppm with Botrytis cinerea (setting [6]) and with Pyricularia oryzae (setting [2]) was 35% in each case. In the assay with Septoria tritici (setting [7]), the inhibition of growth at 0.016 ppm worked out at 0%.
Turning to `CC(C)NC(=O)N1CC(=O)N(c2cc(Cl)cc(Cl)c2)C1=O` [Iprodion, iprodione, reference compound], the inhibition of growth at 1 ppm with Botrytis cinerea (setting [6]) and with Pyricularia oryzae (setting [2]) was 60% throughout.
Take `Cc1cc(OC(C)C)ccc1C(=O)C(C)(C)NC(=O)c1sccc1C` [Isofetamid, isofetamid, reference compound]: the Observed efficacy in the assay with Septoria tritici (single active, 0.25 ppm, MTP, 405 nm, 7 days after inoculation) is listed as 46%.
As for `CC(C)OC(=O)C(C(=O)OC(C)C)=C1SCCS1` [Isoprothiolan, isoprothiolane, reference compound], the inhibition of growth at 4 ppm worked out at 8% in the assay with Botrytis cinerea (Botrytis cinerea, 168 h, read-out: Observed efficacy) and 8% in the assay with Pyricularia oryzae (setting [2]).
Take `Cc1cc(C2=NC(C)C(C)(C)Oc3c(F)cccc32)cnc1C(F)F` (stereo not drawn) [Compound 1-3]: the inhibition of growth at 1 ppm was 9% with Botrytis cinerea (setting [6]) and 19% with Pyricularia oryzae (setting [2]).
As to `Cc1cc(C2=N[C@H](C)C(C)(C)Oc3ccccc32)cnc1C(F)F` [Compound 1-5], the inhibition of growth at 0.016 ppm with Septoria tritici (setting [7]) was determined as 0%. The inhibition of growth at 0.063 ppm with Septoria tritici (setting [8]) stood at 3%. In addition, the inhibition of growth at 0.25 ppm with Septoria tritici (setting [3]) came to 1%.
`Cc1cc(C2=N[C@@H](C)C(C)(C)Oc3ccccc32)cnc1C(F)F` [Compound 1-4]: the inhibition of growth at 1 ppm in the assay on Botrytis cinerea (setting [6]) and in the assay with Pyricularia oryzae (setting [2]) was 17% in each case.
With `CC1COC(Cn2cncn2)(c2ccc(Oc3ccc(Cl)cc3)cc2Cl)O1` (stereo not drawn) [Difenoconazol, difenoconazole, reference compound], the inhibition of growth at 0.25 ppm in the assay with Botrytis cinerea (setting [5]) and with Pyricularia oryzae (setting [2]) was 26% throughout.
For the compound `N#Cc1ccccc1NC(=O)c1snc(Cl)c1Cl` [Isotianil, isotianil, reference compound], the Observed efficacy turned out to be 6% in the assay with Botrytis cinerea (single active, 4 ppm, MTP, 405 nm, 7 days after inoculation) and 6% in the assay with Pyricularia oryzae (4 ppm).
With `Cc1cc(C2=NC3(CC3)COc3c(F)cccc32)cnc1C(F)F` [Compound 1-6], the figures for the inhibition of growth at 0.25 ppm in the assay with Botrytis cinerea (setting [5]), with Pyricularia oryzae (setting [2]) and with Septoria tritici (setting [3]) were 5%, 5% and 0%, respectively. Moreover, the inhibition of growth at 1 ppm in the assay on Botrytis cinerea (setting [6]) turned out to be 14%; with Pyricularia oryzae (setting [2]), 14%; in the assay on Septoria tritici (setting [4]), 3%.
Take `COC(=O)NC(=S)Nc1ccccc1NC(=S)NC(=O)OC` [Thiophanate methyl, thiophanate-methyl, reference compound]: the inhibition of growth at 1 ppm in the assay on Botrytis cinerea (setting [6]) was found to be 9%; in the assay with Pyricularia oryzae (setting [2]), 9%; in the assay with Septoria tritici (setting [4]) it was 10%.
As to `Cc1cc(C2=NCC(C)(C)Oc3c(F)cccc32)cnc1C(F)F` [Compound 1-7], the inhibition of growth at 0.25 ppm with Botrytis cinerea (setting [5]) and in the assay on Pyricularia oryzae (setting [2]) was 0% throughout. In addition, the inhibition of growth at 0.016 ppm in the assay on Septoria tritici (setting [7]) is 12%.
As for `Cc1ccc(NC(=O)c2snnc2C)cc1Cl` [Tiadinil, tiadinil, reference compound], the inhibition of growth at 4 ppm in the assay with Septoria tritici (Zymoseptoria tritici, 168 h, single active, 4 ppm, MTP, 405 nm, 7 days after inoculation, read-out: Observed efficacy) came out at 24%.
Consider `N#Cc1c[nH]cc1-c1cccc2c1OC(F)(F)O2` [Fludioxonil, fludioxonil, reference compound], for which, in the assay with Septoria tritici (Zymoseptoria tritici, 168 h, read-out: Observed efficacy), the inhibition of growth at 0.25 ppm amounted to 26%.
As for `Cc1cc(C2=N[C@@H](C)[C@H](C)Oc3ccccc32)cnc1C(F)F` [Compound 1-1], the inhibition of growth at 0.25 ppm in the assay with Botrytis cinerea (setting [5]) was found to be 7%; in the assay with Pyricularia oryzae (setting [2]), 7%; in the assay on Septoria tritici (setting [3]), 26%. Also, the inhibition of growth at 0.016 ppm in the assay with Septoria tritici (setting [7]) turned out to be 0%. Besides, in the assay on Septoria tritici (setting [8]), the inhibition of growth at 0.063 ppm was 0%.
For `CC(O)(Cn1cncn1)c1ccc(Oc2ccc(Cl)cc2)cc1C(F)(F)F` (stereo not drawn) [Mefentrifluconazol, mefentrifluconazole, reference compound], the Observed efficacy in the assay on Botrytis cinerea (setting [9]) and in the assay with Pyricularia oryzae (0.063 ppm) was 49% in each case.
Consider `CNC(=O)/C(=N/OC)c1ccccc1COc1cc(C)ccc1C` [Dimoxystrobin, dimoxystrobin, reference compound], for which the Observed efficacy in the assay on Botrytis cinerea (single active, 1 ppm, MTP, 405 nm, 7 days after inoculation) worked out at 16%; with Pyricularia oryzae (1 ppm), 16%.
As to `Cn1cc(C(=O)Nc2ccccc2-c2cc(F)c(F)c(F)c2)c(C(F)F)n1` [Fluxapyroxad, fluxapyroxad, reference compound], the Observed efficacy in the assay with Septoria tritici (setting [9]) is 37%.
